Columns and labels:
GPIIb/IIIa = biological target: T1, GPIIb/IIIa (Homo sapiens, UniProt P05106+P08514); experiment: In vitro solid phase purified glycoprotein IIb/IIIa binding assay (biotinylated fibrinogen); settings: for IC50: Table I; for inhibition at 50 µM: read-out: Binding (column Binding IC50), % @ 50 μM
T1 sequence (P08514 32-887 limits assumed): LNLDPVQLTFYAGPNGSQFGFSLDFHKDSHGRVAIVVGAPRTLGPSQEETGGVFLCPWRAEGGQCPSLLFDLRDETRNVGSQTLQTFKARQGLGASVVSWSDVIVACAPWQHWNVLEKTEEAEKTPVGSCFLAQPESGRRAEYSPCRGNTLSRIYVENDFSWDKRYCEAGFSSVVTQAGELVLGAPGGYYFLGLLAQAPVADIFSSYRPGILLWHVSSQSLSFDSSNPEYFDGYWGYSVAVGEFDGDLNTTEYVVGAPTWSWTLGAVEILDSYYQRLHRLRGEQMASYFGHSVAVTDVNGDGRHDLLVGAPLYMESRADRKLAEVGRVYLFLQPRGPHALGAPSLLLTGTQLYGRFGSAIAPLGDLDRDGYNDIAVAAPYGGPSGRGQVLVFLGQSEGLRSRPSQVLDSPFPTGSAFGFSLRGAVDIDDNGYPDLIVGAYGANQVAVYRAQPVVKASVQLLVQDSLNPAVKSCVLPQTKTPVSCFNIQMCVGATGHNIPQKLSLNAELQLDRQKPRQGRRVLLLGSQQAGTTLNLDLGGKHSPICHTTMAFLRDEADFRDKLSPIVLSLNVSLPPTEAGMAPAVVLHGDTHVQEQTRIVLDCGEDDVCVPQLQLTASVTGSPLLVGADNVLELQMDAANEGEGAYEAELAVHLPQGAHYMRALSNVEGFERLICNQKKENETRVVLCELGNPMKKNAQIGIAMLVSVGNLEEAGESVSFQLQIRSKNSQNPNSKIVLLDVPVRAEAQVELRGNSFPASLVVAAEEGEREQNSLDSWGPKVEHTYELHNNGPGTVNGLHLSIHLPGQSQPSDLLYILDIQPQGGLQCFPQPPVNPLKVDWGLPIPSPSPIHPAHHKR
T1 sequence (P05106 27-788): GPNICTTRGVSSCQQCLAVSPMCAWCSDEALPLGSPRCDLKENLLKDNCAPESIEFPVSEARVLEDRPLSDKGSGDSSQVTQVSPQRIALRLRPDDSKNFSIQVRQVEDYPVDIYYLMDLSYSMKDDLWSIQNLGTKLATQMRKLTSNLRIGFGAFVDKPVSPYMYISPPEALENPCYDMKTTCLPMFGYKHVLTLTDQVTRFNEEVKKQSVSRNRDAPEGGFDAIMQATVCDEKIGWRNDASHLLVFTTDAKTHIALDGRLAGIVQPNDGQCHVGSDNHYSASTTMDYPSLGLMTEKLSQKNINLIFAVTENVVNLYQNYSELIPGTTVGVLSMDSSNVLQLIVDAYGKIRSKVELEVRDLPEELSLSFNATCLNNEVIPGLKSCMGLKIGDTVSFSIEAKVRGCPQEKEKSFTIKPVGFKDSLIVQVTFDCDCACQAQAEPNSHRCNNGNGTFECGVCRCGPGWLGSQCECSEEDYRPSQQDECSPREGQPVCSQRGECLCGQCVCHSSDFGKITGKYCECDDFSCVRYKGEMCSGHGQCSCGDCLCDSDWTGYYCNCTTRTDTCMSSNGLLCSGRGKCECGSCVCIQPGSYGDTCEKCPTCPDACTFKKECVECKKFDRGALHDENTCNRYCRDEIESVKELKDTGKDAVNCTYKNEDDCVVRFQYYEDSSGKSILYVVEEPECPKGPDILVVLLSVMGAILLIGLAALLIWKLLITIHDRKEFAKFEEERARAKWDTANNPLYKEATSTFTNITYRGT
Description: The compounds of the present invention interrupt binding of fibrinogen to platelet glycoprotein IIb/IIIa (GPIIb/IIIa) and thereby inhibit platelet aggregation. […] Because the final, common pathway in normal platelet aggregation is the binding of fibrinogen to activated, exposed GPIIb/IIIa, inhibition of this binding represents a plausible antithrombotic approach. The receptor is activated by stimuli such as ADP, collagen, and thrombin, exposing binding domains to two different peptide regions of fibrinogen: α-chain Arg-Gly-Asp (RGD) and γ-chain 400-411.
IN VITRO SOLID PHASE PURIFIED GLYCOPROTEIN IIB/IIIA BINDING ASSAY.
The plate is covered and incubated overnight at 4° C. The GPIIb/IIa solution is discarded and 150 μl of 5% BSA is added and incubated at RT for 1-3 h. The plate is washed extensively with modified Tyrodes buffer. Biotinylated fibrinogen (25 μl/well) at 2× final concentration is added to the wells that contain the test compounds (25 μl/well) at 2× final concentration. The plate is covered and incubated at RT for 2-4 h. Twenty minutes prior to incubation completion, one drop of Reagent A (Vecta Stain ABC Horse Radish Peroxidase kit, Vector Laboratories, Inc.) and one drop Reagent B are added with mixing to 5 mL modified Tyrodes buffer mix and let stand. The ligand solution is discarded and the plate washed (5×200 μl/well) with modified Tyrodes buffer. Vecta Stain HRP-Biotin-Avidin reagent (50 μl/well, as prepared above) is added and incubated at RT for 15 min. The Vecta Stain solution is discarded and the wells washed (5×200 μl/well) with modified Tyrodes buffer. […] The absorbance is read at 490 nm.

gel-filtered platelets = experiment: In vitro inhibition of thrombin-induced gel-filtered platelet aggregation assay; format: cell-based; settings: *Indicates IC50, read-out: Pl. Aggr. IC50
Protocol: IN VITRO INHIBITION OF THROMBIN-INDUCED GEL-FILTERED PLATELET AGGREGATION ASSAY.
The percentage of platelet aggregation is calculated as an increase in light transmission of compound treated platelet concentrate vs. control treated platelet concentrate. Blood is obtained from drug free, normal donors into tubes containing 0.13M sodium citrate. Platelet rich plasma (PRP) is collected by centrifugation of whole blood at 200×g for 10 min at 25° C. The PRP (5 mL) is gel filtered through Sepharose 2B (bed volume 50 mL), and the platelet count is adjusted to 2×10^7platelets per sample. The following constituents are added to a siliconized cuvette: concentrated platelet filtrate and Tyrode's buffer (0.1 4M NaCl, 0.0027M KCl, 0.01 2M NaHCO3, 0.76 mM Na2 HPO4, 0.0055M glucose, 2 mg/mL BSA and 5.0 mM HEPES @ pH 7.4) in an amount equal to 350 μl, 50 μl of 20 mM calcium and 50 μl of the test compound. Aggregation is monitored in a BIODATA aggregometerforthe 3 min following the addition of agonist (thrombin 50 μl of 1 unit/mL).

platelet aggregation = experiment: In vivo dog study: gamma thrombin- and collagen-induced platelet aggregation; parameters: species or system mongrel dogs; settings: mean ± SEM
Protocol: (§1) Adult mongrel dogs of either sex 9-13 kg) were anesthetized with pentobarbital sodium (35 mg/kg, i.v.) and ventilated with room air via an endotracheal tube (12 strokes/min, 25 ml/kg). For arterial pressure determination, the left carotid artery was cannulated with a saline-filledpolyethylene catheter (PE-200) and connected to a Statham pressure transducer (P231D, Oxnard, Calif.). Mean arterial diastolic blood pressure. Heart rate was monitored using a cardiotachometer (Biotach, Gould
(§2) Electronics, Cleveland, Ohio) triggered from a lead 11 electrocardiogram generated by limb leads. A jugular vein was cannulated (PE-200) for drug administration. The left femoral artery and the left femoral vein were cannulated with silicon treated (Sigmacote, Sigma Chemical Co., St. Louis, Mo.), saline filled polyethylene tubing (PE-200) and connected with a 5 cm section of silicon treated tubing (PE-240) to form an extracorporeal arteriovenous shunt (A-V). Shunt patency was monitored using a Doppler flow system (model VF-1, Crystal Biotech Inc., Hopkinton, Mass.) and proximal to the locus of the shunt. All parameters were monitored continuously on a polygraph recorder (Gould TA-4000, Oxnard Calif.) at a paper speed of 10 mm/min.
(§3) On completion of a 15 min post surgical stabilization period, an occlusive thrombus was formed by the introduction of a thrombogenic surface (O braided silk thread, 5 cm in length, Ethicon Inc., Somerville, N.J.) into the shunt. Four consecutive 15 min shunt periods were employed with the first consisting of a vehicle infusion followed by increasing concentrations of Compound 16, SC-47643, saline with DMF or saline with citric acid administered as a bolus followed by an infusion beginning 5 min. before insertion of the thrombogenic surface and continued for an additional 15 min. AT the end of each 15 min shunt period the silk was carefully removed and weighed. A fifth shunt immediately following the total cumulative treatment dose was used to assess patency duration as indicated by time to total occlusion. Thrombus weight was calculated by subtracting the weight of the silk prior to placement from the total weight of the silk on removal from the shunt. Arterial blood was withdrawn prior to the first shunt and after each shunt period for determination of whole blood collagen-induced platelet aggregation, thrombin-induced platelet degranulation (platelet ATP release), prothrombin time and platelet count. Template bleeding time was performed beginning 10 min. into each shunt period.
Whole blood platelet aggregation and ATP release were measured using a lumi-aggregation and ATP release were measured using a lumi-aggregometer (Chrono-log, Havertown, Pa.) by recording the change in impedance (platelet aggregation) and light transmission (ATP-release) through a stirred (1000 rpm) suspension of whole blood maintained at 37 C.
(§4) Compound 16;1+0.03, 3+0.1 and 5+0.3 mg/kg, i.v. (bolus)+mg/kg/hr,i.v. (infusion) was solubilized in saline+DMF (5%) and serially diluted to achieve appropriate concentrations expressed as parent compound.
(§5) All values are expressed as the mean and standard error of the mean. Statistical significance of the change was assessed based on change from baseline suing analysis of variance and Student's t-test. Differences were considered significant when P<0.05.

occlusive thrombus = experiment: In vivo dog study: thrombus formation in extracorporeal arteriovenous shunt; parameters: species or system mongrel dogs; settings: for Thrombus Weight: mean ± SEM
Protocol: Compound 16 was tested in the following in vivo dog model to determine its therapeutic efficacy
as §1, §2, §3, §4, §5

For `CC(C)(C)OC(=O)N[C@@H](CCCCNC(=O)OCc1ccccc1)C(=O)N1CCCC(C(=O)NCCC(=O)OCc2ccccc2)C1` (stereo partly drawn) [Compound 1, Nα-Boc-L-Lys(Cbz)-Nip-Ala-OBn], the IC50 (GPIIb/IIIa) was 20100 nM.
`CC(C)(C)OC(=O)N[C@@H](CCCCN)C(=O)N1CCCC(C(=O)NCCC(=O)O)C1` (stereo partly drawn) [Compound 2, Nα-Boc-L-Lys-Nip-γ-Ala--OH] was tested, and the IC50 (GPIIb/IIIa) was 740 nM.
With `CC(C)(C)OC(=O)N[C@H](CCCCN)C(=O)N1CCCC(C(=O)NCCC(=O)O)C1` (stereo partly drawn) [Compound 3, Nα-Boc-D-Lys-Nip-γ-Ala--OH] the IC50 (GPIIb/IIIa) was 21 nM and the IC50 (gel-filtered platelets) was 600 nM.
In the case of `NCCCC[C@H](N)C(=O)N1CCCC(C(=O)NCCC(=O)O)C1` (stereo partly drawn) [Compound 4, H-L-Lys-Nip-γ-Ala-OH], the IC50 (GPIIb/IIIa) is reported as 2600 nM.
With `CC(=O)N[C@@H](CCCCN)C(=O)N1CCCC(C(=O)NCC(=O)O)C1` (stereo partly drawn) [Compound 6, Nα-Ac-L-Lys-Nip-Gly-OH] the inhibition at 50 µM (GPIIb/IIIa) was 24%.
Work on `CC(=O)N[C@@H](CCCCN)C(=O)N1CCCC(C(=O)NCCC(=O)O)C1` (stereo partly drawn) [Compound 7, Nα-Ac-L-Lys-Nip-β-Ala-OH] yielded an IC50 (GPIIb/IIIa) of 74 nM.
`CC(C)(C)OC(=O)N[C@@H](CCCCN)C(=O)N1CCCC(C(=O)NCCCC(=O)O)C1` (stereo partly drawn) [Compound 9, Nα-Boc-L-Lys-Nip-γ-aminobutyric acid] showed an inhibition at 50 µM (GPIIb/IIIa) of 59%.
`NCCCC[C@@H](N)C(=O)N1CCCC(C(=O)NCCC(=O)O)C1` (stereo partly drawn) [Compound 10, H-D-Lys-Nip-β-Ala-OH] was tested, and the IC50 (GPIIb/IIIa) was 760 nM.
Work on `CC(=O)N[C@H](CCCCN)C(=O)N1CCCC(C(=O)NCCC(=O)O)C1` (stereo partly drawn) [Compound 13, Nα-Ac-D s-Nip-β-Ala-OH] yielded an IC50 (GPIIb/IIIa) of 340 nM.
`CC(C)NCCCC[C@H](NC(=O)OC(C)(C)C)C(=O)N1CCCC(C(=O)NCCC(=O)O)C1` (stereo partly drawn) [Compound 15, Nα-Boc-L-Lys(i-Pr)-Nip-β-Ala-OH] was tested, and the inhibition at 5 µM (GPIIb/IIIa; read-out: Binding (column Binding IC50), % @ 5 μM) was 20%.
For `CC(C)(C)OC(=O)N[C@H](CCCCN)C(=O)N1CCC[C@@H](C(=O)NCCC(=O)O)C1` [Compound 16, Nα-Boc-D-Lys-R-(-)-Nip-β-Ala-OH], the “Collagen-Induced Plat Agg (% inhib)” value (platelet aggregation; 2-Dose 1 (1+0.03)) was 14 ± 3 % inhib, the “G-Thrombin-Induced Plat Agg (% inhib)” value (platelet aggregation; 2-Dose 1 (1+0.03)) was 8 ± 5 % inhib and the “Collagen-Induced Plat Agg (% inhib)” value (platelet aggregation; 3-Dose 2 (3+0.1), *P < 0.05) was 99 ± 1 % inhib. The “G-Thrombin-Induced Plat Agg (% inhib)” value (platelet aggregation; 3-Dose 2 (3+0.1), *P < 0.05) was 34 ± 8 % inhib, the “Collagen-Induced Plat Agg (% inhib)” value (platelet aggregation; 4-Dose 3 (5+0.3), *P < 0.05) was 100 ± 0 % inhib and the “G-Thrombin-Induced Plat Agg (% inhib)” value (platelet aggregation; 4-Dose 3 (5+0.3), *P < 0.05) was 72 ± 8 % inhib. For the same compound, the “G-Thrombin-Induced Plat Agg (% inhib)” value (platelet aggregation; 30 min post) was 21 ± 8 % inhib, the “Collagen-Induced Plat Agg (% inhib)” value (platelet aggregation; 30 min post, *P < 0.05) was 82 ± 13 % inhib and the “G-Thrombin-Induced Plat Agg (% inhib)” value (platelet aggregation; 60 min post) was 11 ± 5 % inhib. The “Collagen-Induced Plat Agg (% inhib)” value (platelet aggregation; 60 min post, *P < 0.05) was 57 ± 14 % inhib, the “Incidence of occlusive thrombus formation (animals per group)” value (“Incidence … (animals per group)” for short) (occlusive thrombus; Period 2, Dose 1 (1+0.03 mg/kg iv bolus + mg/kg/hr infusion)) was 2/4 and the “Incidence … (animals per group)” value (occlusive thrombus; Period 3, Dose 2 (3+0.1)) was 1/4. For the same compound, the “Incidence … (animals per group)” value (occlusive thrombus; Period 4, Dose 3 (5+0.3)) was 0/4, the “Incidence … (animals per group)” value (occlusive thrombus; Post Treatment, monitored for 60 min) was 3/4 and the “Thrombus Weight” value (occlusive thrombus; Shunt 2 - Dose 1 (1+0.03)) was 52 ± 3 mg. For the same compound, the “Thrombus Weight” value (occlusive thrombus; Shunt 3 - Dose 2 (3+0.1), *P < 0.05) was 27 ± 1 mg and the “Thrombus Weight” value (occlusive thrombus; Shunt 4 - Dose 3 (5+0.3), *P < 0.05) was 19 ± 2 mg.
